Source: US10597388B2, “Pyridazinone herbicides” (FMC CORPORATION, priority 2014, dated 2020)

Legend:
Assay in all cases: Test D controlled growth environment herbicide test, pre- and postemergence
Type in all cases: in vivo
[1] = tested on: field poppy (Papaver rhoeas)
Procedure, shortened: (§1)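 Species sown in silt loam and sprayed preemergence, or grown in peat-based medium to 2–18 cm (1- to 4-leaf stage) and sprayed postemergence, with compounds in non-phytotoxic solvent plus surfactant. Visual injury scored versus controls after 14–21 d in a controlled environment, 0 (no effect) to 100 (complete control).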

[2] = tested on: wheat, spring (spring wheat, Triticum aestivum)
Procedure, shortened: as §1

[3] = tested on: Russian thistle (Salsola kali)
Procedure, shortened: as §1

[4] = tested on: mustard, wild (wild mustard, Sinapis arvensis)
Procedure, shortened: as §1

[5] = tested on: chamomile (scentless chamomile, Matricaria inodora)
Procedure, shortened: as §1

[6] = tested on: bluegrass (annual bluegrass, Poa annua)
Procedure, shortened: as §1

[7] = tested on: oat, wild (wild oat, Avena fatua)
Procedure, shortened: as §1

[8] = tested on: bromegrass, downy (downy bromegrass, Bromus tectorum)
Procedure, shortened: as §1

[9] = tested on: buckwheat, wild (wild buckwheat, Polygonum convolvulus)
Procedure, shortened: as §1

[10] = tested on: field violet (Viola arvensis)
Procedure, shortened: as §1

[11] = tested on: radish, wild (wild radish, Raphanus raphanistrum)
Procedure, shortened: as §1

[12] = tested on: canarygrass (Phalaris minor)
Procedure, shortened: as §1

[13] = tested on: oilseed rape (Brassica napus)
Procedure, shortened: as §1

[14] = Postemergence, 31 g ai/ha, scale 0 to 100 (0 no effect, 100 complete control)
[15] = Postemergence, 125 g ai/ha, visual rating on scale 0 (no effect) to 100 (complete control), 14 to 21 d
[16] = Postemergence, 250 g ai/ha, scale 0 to 100 (0 no effect, 100 complete control)
[17] = Preemergence, 125 g ai/ha, scale 0 to 100 (0 no effect, 100 complete control)
[18] = Preemergence, 250 g ai/ha, scale 0 to 100 (0 no effect, 100 complete control)
[19] = postemergence, 62 g ai/ha, scale 0 to 100, 0 no effect, 100 complete control
[20] = Preemergence, 62 g ai/ha, scale 0 to 100 (0 no effect, 100 complete control)

## CC(=O)Oc1c(C)nn(C)c(=O)c1-c1c(C)cc(C)c2ccccc12 [Compound 153]
[1]; [14]
  Field Poppy plant response rating: 75
[1]; [15]
  Plant response rating, Field Poppy: 100
[1]; [16]
  Plant response rating, Field Poppy: 100
[1]; Preemergence, 31 g ai/ha
  Plant response rating (scale of 0 to 100), Field Poppy: 100
[1]; Preemergence, 62 g ai/ha
  Plant response rating (scale of 0 to 100), Field Poppy: 100
[1]; [17]
  Plant response rating, Field Poppy: 100
[1]; [18]
  Plant response rating, Field Poppy: 100
[1]; [19]
  Plant response rating, Field Poppy: 95
[2]; [14]
  Wheat, Spring plant response rating: 20
[2]; [15]
  Plant response rating, Wheat, Spring: 40
[2]; [16]
  Plant response rating, Wheat, Spring: 50
[2]; Preemergence, 31 g ai/ha
  Plant response rating (scale of 0 to 100), Wheat, Spring: 25
[2]; Preemergence, 62 g ai/ha
  Plant response rating (scale of 0 to 100), Wheat, Spring: 45
[2]; [17]
  Plant response rating, Wheat, Spring: 70
[2]; [18]
  Plant response rating, Wheat, Spring: 85
[2]; [19]
  Plant response rating, Wheat, Spring: 30
[3]; [14]
  Russian Thistle plant response rating: 25
[3]; [15]
  Plant response rating, Russian Thistle: 45
[3]; [16]
  Plant response rating, Russian Thistle: 55
[3]; Preemergence, 31 g ai/ha
  Plant response rating (scale of 0 to 100), Russian Thistle: 0
[3]; Preemergence, 62 g ai/ha
  Plant response rating (scale of 0 to 100), Russian Thistle: 15
[3]; [17]
  Plant response rating, Russian Thistle: 60
[3]; [18]
  Plant response rating, Russian Thistle: 100
[3]; [19]
  Plant response rating, Russian Thistle: 20
[4]; [14]
  Mustard, Wild plant response rating: 98
[4]; [15]
  Plant response rating, Mustard, Wild: 100
[4]; [16]
  Plant response rating, Mustard, Wild: 100
[4]; Preemergence, 31 g ai/ha
  Plant response rating (scale of 0 to 100), Mustard, Wild: 100
[4]; Preemergence, 62 g ai/ha
  Plant response rating (scale of 0 to 100), Mustard, Wild: 100
[4]; [17]
  Plant response rating, Mustard, Wild: 100
[4]; [18]
  Plant response rating, Mustard, Wild: 100
[4]; [19]
  Plant response rating, Mustard, Wild: 98
[5]; [14]
  Chamomile plant response rating: 70
[5]; [15]
  Plant response rating, Chamomile: 100
[5]; [16]
  Plant response rating, Chamomile: 100
[5]; Preemergence, 31 g ai/ha
  Plant response rating (scale of 0 to 100), Chamomile: 100
[5]; Preemergence, 62 g ai/ha
  Plant response rating (scale of 0 to 100), Chamomile: 100
[5]; [17]
  Plant response rating, Chamomile: 100
[5]; [18]
  Plant response rating, Chamomile: 100
[5]; [19]
  Plant response rating, Chamomile: 95
[6]; [14]
  Bluegrass plant response rating: 15
[6]; [15]
  Plant response rating, Bluegrass: 30
[6]; [16]
  Plant response rating, Bluegrass: 40
[6]; Preemergence, 31 g ai/ha
  Plant response rating (scale of 0 to 100), Bluegrass: 70
[6]; [20]
  Plant response rating, Bluegrass: 75
[6]; [17]
  Plant response rating, Bluegrass: 75
[6]; [18]
  Plant response rating, Bluegrass: 75
[6]; [19]
  Plant response rating, Bluegrass: 15
[7]; [14]
  Oat, Wild plant response rating: 85
[7]; [15]
  Plant response rating, Oat, Wild: 90
[7]; [16]
  Plant response rating, Oat, Wild: 98
[7]; Preemergence, 31 g ai/ha
  Plant response rating (scale of 0 to 100), Oat, Wild: 80
[7]; Preemergence, 62 g ai/ha
  Plant response rating (scale of 0 to 100), Oat, Wild: 95
[7]; [17]
  Plant response rating, Oat, Wild: 98
[7]; [18]
  Plant response rating, Oat, Wild: 98
[7]; [19]
  Plant response rating, Oat, Wild: 85
[8]; [14]
  Bromegrass, Downy plant response rating: 25
[8]; [15]
  Plant response rating, Bromegrass, Downy: 65
[8]; [16]
  Plant response rating, Bromegrass, Downy: 70
[8]; Preemergence, 31 g ai/ha
  Plant response rating (scale of 0 to 100), Bromegrass, Downy: 75
[8]; [20]
  Plant response rating, Bromegrass, Downy: 75
[8]; [17]
  Plant response rating, Bromegrass, Downy: 85
[8]; [18]
  Plant response rating, Bromegrass, Downy: 95
[8]; [19]
  Plant response rating, Bromegrass, Downy: 35
[9]; [14]
  Buckwheat, Wild plant response rating: 95
[9]; [15]
  Plant response rating, Buckwheat, Wild: 100
[9]; [16]
  Plant response rating, Buckwheat, Wild: 100
[9]; Preemergence, 31 g ai/ha
  Plant response rating (scale of 0 to 100), Buckwheat, Wild: 40
[9]; [20]
  Plant response rating, Buckwheat, Wild: 60
[9]; [17]
  Plant response rating, Buckwheat, Wild: 85
[9]; [18]
  Plant response rating, Buckwheat, Wild: 85
[9]; [19]
  Plant response rating, Buckwheat, Wild: 95
[10]; [14]
  Field Violet plant response rating: 85
[10]; [15]
  Plant response rating, Field Violet: 95
[10]; [16]
  Plant response rating, Field Violet: 100
[10]; Preemergence, 31 g ai/ha
  Plant response rating (scale of 0 to 100), Field Violet: 100
[10]; Preemergence, 62 g ai/ha
  Plant response rating (scale of 0 to 100), Field Violet: 100
[10]; [17]
  Plant response rating, Field Violet: 100
[10]; [18]
  Plant response rating, Field Violet: 100
[10]; [19]
  Plant response rating, Field Violet: 90
[11]; [14]
  Radish, Wild plant response rating: 80
[11]; [15]
  Plant response rating, Radish, Wild: 100
[11]; [16]
  Plant response rating, Radish, Wild: 100
[11]; Preemergence, 31 g ai/ha
  Plant response rating (scale of 0 to 100), Radish, Wild: 80
[11]; Preemergence, 62 g ai/ha
  Plant response rating (scale of 0 to 100), Radish, Wild: 98
[11]; [17]
  Plant response rating, Radish, Wild: 98
[11]; [18]
  Plant response rating, Radish, Wild: 100
[11]; [19]
  Plant response rating, Radish, Wild: 85
[12]; [14]
  Canarygrass plant response rating: 75
[12]; [15]
  Plant response rating, Canarygrass: 80
[12]; [16]
  Plant response rating, Canarygrass: 85
[12]; Preemergence, 31 g ai/ha
  Plant response rating (scale of 0 to 100), Canarygrass: 85
[12]; Preemergence, 62 g ai/ha
  Plant response rating (scale of 0 to 100), Canarygrass: 90
[12]; [17]
  Plant response rating, Canarygrass: 95
[12]; [18]
  Plant response rating, Canarygrass: 100
[12]; [19]
  Plant response rating, Canarygrass: 75
[13]; [14]
  Oilseed Rape plant response rating: 70
[13]; [15]
  Plant response rating, Oilseed Rape: 85
[13]; [16]
  Plant response rating, Oilseed Rape: 98
[13]; Preemergence, 31 g ai/ha
  Plant response rating (scale of 0 to 100), Oilseed Rape: 75
[13]; Preemergence, 62 g ai/ha
  Plant response rating (scale of 0 to 100), Oilseed Rape: 85
[13]; [17]
  Plant response rating, Oilseed Rape: 90
[13]; [18]
  Plant response rating, Oilseed Rape: 100
[13]; [19]
  Plant response rating, Oilseed Rape: 85
